Converted amounts (≈) assume the structure as drawn.
Key:
Assay in all cases: MIC, microdilution broth method (NCCLS)
Format in all cases: cell-based
Conditions in all cases: 35° C., 16-20 hours
[1] = tested on: H. influenzae ATCC49247
Procedure, shortened: (§1)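 Broth microdilution per NCCLS M7-A4; cation-adjusted Mueller-Hinton broth, 2-fold serial dilutions; inoculum ~5×10^4 CFU/well from turbidity-adjusted log-phase culture; 35° C., 16-20 h; growth scored vs no-compound control.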

[2] = tested on: E. coli OC2605
Procedure, shortened: as §1

[3] = tested on: S. aureus ATCC29213
Procedure, shortened: as §1

[4] = tested on: S. pneumoniae ATCC49619
Procedure, shortened: as §1

[5] = tested on: E. faecalis ATCC29212
Procedure, shortened: as §1

For `CCC1OC(=O)C(C)C(=O)C(C)C(OC2OC(C)CC(N(C)C)C2O)C(C)(OC(=O)OCC=Cc2ccc(-c3ncccn3)cc2)CC(C)C(=O)C(C)C2NC(=O)OC12C` (stereo not shown) [Compound 7], the “MIC (E: H. influenzae ATCC49247)” value [1] was 2 µg/mL (≈ 2.39 µM), the “MIC (A: E. coli OC2605)” value [2] was 8 µg/mL (≈ 9.56 µM) and the “MIC (B: S. aureus ATCC29213)” value [3] was 0.12 µg/mL (≈ 0.143 µM). For the same compound, the “MIC (D: S. pneumoniae ATCC49619)” value [4] was 0.03 µg/mL (≈ 0.0358 µM) and the “MIC (C: E. faecalis ATCC29212)” value [5] was 0.06 µg/mL (≈ 0.0717 µM).
For `CCC1OC(=O)C(C)C(=O)C(C)C(OC2OC(C)CC(N(C)C)C2O)C(C)(OC(=O)OCC=Cc2ccc(-c3cccnn3)cc2)CC(C)C(=O)C(C)C2NC(=O)OC12C` (stereo not shown) [Compound 20], the “MIC (E: H. influenzae ATCC49247)” value [1] was 2 µg/mL (≈ 2.39 µM), the “MIC (A: E. coli OC2605)” value [2] was 8 µg/mL (≈ 9.56 µM) and the “MIC (B: S. aureus ATCC29213)” value [3] was 0.12 µg/mL (≈ 0.143 µM). The “MIC (D: S. pneumoniae ATCC49619)” value [4] was 0.03 µg/mL (≈ 0.0358 µM) and the “MIC (C: E. faecalis ATCC29212)” value [5] was 0.06 µg/mL (≈ 0.0717 µM).
`CCC1OC(=O)C(C)C(=O)C(C)C(OC2OC(C)CC(N(C)C)C2O)C(C)(OC(=O)OCc2ccc(-c3ncccn3)cc2)CC(C)C(=O)C(C)C2NC(=O)OC12C` (stereo not shown) [Compound 77] was tested, and the “MIC (E: H. influenzae ATCC49247)” value [1] was 2 µg/mL (≈ 2.47 µM), the “MIC (A: E. coli OC2605)” value [2] was 8 µg/mL (≈ 9.87 µM) and the “MIC (B: S. aureus ATCC29213)” value [3] was 0.12 µg/mL (≈ 0.148 µM). The “MIC (D: S. pneumoniae ATCC49619)” value [4] was 0.03 µg/mL (≈ 0.037 µM) and the “MIC (C: E. faecalis ATCC29212)” value [5] was 0.06 µg/mL (≈ 0.074 µM).
With `CCC1OC(=O)C(C)C(=O)C(C)C(OC2OC(C)CC(N(C)C)C2O)C(C)(OC(=O)OCC#Cc2ccc(-c3ncccn3)cc2)CC(C)C(=O)C(C)C2NC(=O)OC12C` (stereo not shown) [Compound 80] the “MIC (E: H. influenzae ATCC49247)” value [1] was 2 µg/mL (≈ 2.4 µM), the “MIC (A: E. coli OC2605)” value [2] was 16 µg/mL (≈ 19.2 µM) and the “MIC (B: S. aureus ATCC29213)” value [3] was 0.25 µg/mL (≈ 0.299 µM). For the same compound, the “MIC (D: S. pneumoniae ATCC49619)” value [4] was 0.03 µg/mL (≈ 0.0359 µM) and the “MIC (C: E. faecalis ATCC29212)” value [5] was 0.12 µg/mL (≈ 0.144 µM).
`CCC1OC(=O)C(C)C(=O)C(C)C(OC2OC(C)CC(N(C)C)C2O)C(C)(OC(=O)OCC#Cc2ccc(-c3cnccn3)cc2)CC(C)C(=O)C(C)C2NC(=O)OC12C` (stereo not shown) [Compound 86] was tested, and the “MIC (E: H. influenzae ATCC49247)” value [1] was 2 µg/mL (≈ 2.4 µM), the “MIC (A: E. coli OC2605)” value [2] was 8 µg/mL (≈ 9.58 µM) and the “MIC (B: S. aureus ATCC29213)” value [3] was 0.12 µg/mL (≈ 0.144 µM). The “MIC (D: S. pneumoniae ATCC49619)” value [4] was 0.03 µg/mL (≈ 0.0359 µM) and the “MIC (C: E. faecalis ATCC29212)” value [5] was 0.06 µg/mL (≈ 0.0719 µM).
For `CCC1OC(=O)C(C)C(=O)C(C)C(OC2OC(C)CC(N(C)C)C2O)C(C)(OC(=O)OCC#Cc2ccc(-c3cccnn3)cc2)CC(C)C(=O)C(C)C2NC(=O)OC12C` (stereo not shown) [Compound 87], the “MIC (E: H. influenzae ATCC49247)” value [1] was 1 µg/mL (≈ 1.2 µM), the “MIC (A: E. coli OC2605)” value [2] was 8 µg/mL (≈ 9.58 µM) and the “MIC (B: S. aureus ATCC29213)” value [3] was 0.12 µg/mL (≈ 0.144 µM). The “MIC (D: S. pneumoniae ATCC49619)” value [4] was 0.03 µg/mL (≈ 0.0359 µM) and the “MIC (C: E. faecalis ATCC29212)” value [5] was 0.06 µg/mL (≈ 0.0719 µM).
`CCC1OC(=O)C(C)C(=O)C(C)C(OC2OC(C)CC(N(C)C)C2O)C(C)(OC(=O)NOCc2ccccc2)CC(C)C(=O)C(C)C2NC(=O)OC12C` (stereo not shown) [Compound 570] was tested, and the “MIC (E: H. influenzae ATCC49247)” value [1] was 4 µg/mL (≈ 5.35 µM), the “MIC (A: E. coli OC2605)” value [2] was >16 µg/mL and the “MIC (B: S. aureus ATCC29213)” value [3] was 1 µg/mL (≈ 1.34 µM). For the same compound, the “MIC (D: S. pneumoniae ATCC49619)” value [4] was 0.03 µg/mL (≈ 0.0401 µM) and the “MIC (C: E. faecalis ATCC29212)” value [5] was 0.25 µg/mL (≈ 0.334 µM).
`CCC1OC(=O)C(C)C(=O)C(C)C(OC2OC(C)CC(N(C)C)C2O)C(C)(OC(=O)NOCCc2ccc(-c3ncccn3)cc2)CC(C)C(=O)C(C)C2NC(=O)OC12C` (stereo not shown) [Compound 571] was tested, and the “MIC (E: H. influenzae ATCC49247)” value [1] was 4 µg/mL (≈ 4.76 µM), the “MIC (A: E. coli OC2605)” value [2] was >16 µg/mL and the “MIC (B: S. aureus ATCC29213)” value [3] was 0.5 µg/mL (≈ 0.595 µM). The “MIC (D: S. pneumoniae ATCC49619)” value [4] was 0.03 µg/mL (≈ 0.0357 µM) and the “MIC (C: E. faecalis ATCC29212)” value [5] was 0.12 µg/mL (≈ 0.143 µM).
With `CCC1OC(=O)C(C)C(=O)C(C)C(OC2OC(C)CC(N(C)C)C2O)C(C)(OC(=O)NOCc2ccc(-c3ncccn3)cc2)CC(C)C(=O)C(C)C2NC(=O)OC12C` (stereo not shown) [Compound 599] the “MIC (E: H. influenzae ATCC49247)” value [1] was 2 µg/mL (≈ 2.42 µM), the “MIC (A: E. coli OC2605)” value [2] was 16 µg/mL (≈ 19.4 µM) and the “MIC (B: S. aureus ATCC29213)” value [3] was 0.5 µg/mL (≈ 0.605 µM). The “MIC (D: S. pneumoniae ATCC49619)” value [4] was 0.06 µg/mL (≈ 0.0726 µM) and the “MIC (C: E. faecalis ATCC29212)” value [5] was 0.25 µg/mL (≈ 0.303 µM).
With `CCC1OC(=O)C(C)C(=O)C(C)C(OC2OC(C)CC(N(C)C)C2O)C(C)(OC(=O)NOCC=Cc2ccc(-c3ncccn3)cc2)CC(C)C(=O)C(C)C2NC(=O)OC12C` (stereo not shown) [Compound 605] the “MIC (E: H. influenzae ATCC49247)” value [1] was 4 µg/mL (≈ 4.69 µM), the “MIC (A: E. coli OC2605)” value [2] was 16 µg/mL (≈ 18.8 µM) and the “MIC (B: S. aureus ATCC29213)” value [3] was 0.25 µg/mL (≈ 0.293 µM). For the same compound, the “MIC (D: S. pneumoniae ATCC49619)” value [4] was 0.06 µg/mL (≈ 0.0704 µM) and the “MIC (C: E. faecalis ATCC29212)” value [5] was 0.25 µg/mL (≈ 0.293 µM).
For `CCC1OC(=O)C(C)C(=O)C(C)C(OC2OC(C)CC(N(C)C)C2O)C(C)(OC(=O)NOCCCc2ccc(-c3ncccn3)cc2)CC(C)C(=O)C(C)C2NC(=O)OC12C` (stereo not shown) [Compound 608], the “MIC (E: H. influenzae ATCC49247)” value [1] was 4 µg/mL (≈ 4.68 µM), the “MIC (A: E. coli OC2605)” value [2] was >16 µg/mL and the “MIC (B: S. aureus ATCC29213)” value [3] was 0.5 µg/mL (≈ 0.585 µM). For the same compound, the “MIC (D: S. pneumoniae ATCC49619)” value [4] was 0.06 µg/mL (≈ 0.0703 µM) and the “MIC (C: E. faecalis ATCC29212)” value [5] was 0.5 µg/mL (≈ 0.585 µM).
